17 molecules from ChEMBL document CHEMBL1139259, “Molecular modeling, synthesis, and activity studies of novel biaryl and fused-ring BACE1 inhibitors” (Bioorg Med Chem Lett, 2009) can be followed below.

For one assay, the target named is T1, Beta-secretase 2 (Homo sapiens, UniProt Q9Y5Z0).
T1 sequence (Q9Y5Z0 whole entry): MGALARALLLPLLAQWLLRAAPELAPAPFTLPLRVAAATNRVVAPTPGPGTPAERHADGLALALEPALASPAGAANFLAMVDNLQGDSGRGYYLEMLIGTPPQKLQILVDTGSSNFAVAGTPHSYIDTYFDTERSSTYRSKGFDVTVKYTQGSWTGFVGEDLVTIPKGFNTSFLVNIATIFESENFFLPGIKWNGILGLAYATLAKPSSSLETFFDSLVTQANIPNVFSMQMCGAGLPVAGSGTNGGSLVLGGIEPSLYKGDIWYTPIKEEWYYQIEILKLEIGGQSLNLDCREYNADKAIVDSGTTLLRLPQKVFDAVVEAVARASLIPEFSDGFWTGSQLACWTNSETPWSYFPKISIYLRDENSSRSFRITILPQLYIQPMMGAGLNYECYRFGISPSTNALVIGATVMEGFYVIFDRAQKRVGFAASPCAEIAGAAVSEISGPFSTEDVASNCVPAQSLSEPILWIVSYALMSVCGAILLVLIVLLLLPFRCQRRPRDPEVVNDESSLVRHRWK
The assay can be described thus: Inhibition of BACE2 expressed in human 293T cells. In kind it is cell-based.

Another assay deals with Beta-secretase 1 (Homo sapiens, UniProt P56817).
The next assay relates to N2a. The assay can be described thus: Reduction of amyloid beta40 level in mouse N2A cells expressing Swedish mutant human APP695 at 10 uM after 24 hrs by ELISA. On the set-up: scale not given: the % may be the effect or the level left. The format is functional.

Chain of Beta-secretase 1 (P56817 whole entry): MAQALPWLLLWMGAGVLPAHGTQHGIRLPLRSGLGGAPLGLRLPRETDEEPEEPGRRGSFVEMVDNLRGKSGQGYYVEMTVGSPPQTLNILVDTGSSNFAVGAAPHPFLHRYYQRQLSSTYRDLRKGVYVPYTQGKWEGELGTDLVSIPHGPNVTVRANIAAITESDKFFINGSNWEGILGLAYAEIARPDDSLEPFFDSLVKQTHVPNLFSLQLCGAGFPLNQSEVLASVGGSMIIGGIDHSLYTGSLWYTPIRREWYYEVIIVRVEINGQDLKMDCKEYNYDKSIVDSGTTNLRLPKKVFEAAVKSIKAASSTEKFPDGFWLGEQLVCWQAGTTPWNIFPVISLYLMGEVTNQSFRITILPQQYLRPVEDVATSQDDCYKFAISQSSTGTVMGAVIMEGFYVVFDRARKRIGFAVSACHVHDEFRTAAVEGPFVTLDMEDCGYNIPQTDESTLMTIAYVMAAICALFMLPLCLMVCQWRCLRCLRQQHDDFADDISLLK
Description for Beta-secretase 1: Inhibition of BACE1 expressed in human 293T cells

Take `C[C@@H](NC(=O)c1cc(C(=O)N[C@@H](Cc2ccccc2)[C@H](O)CNC2CC2)cc(N2CCCS2(=O)=O)c1)c1ccccc1`: the results for the IC50 against Beta-secretase 2 and against Beta-secretase 1 were 141 nM and 1770 nM, respectively.

In the case of `C[C@@H](NC(=O)c1cc(C(=O)N[C@@H](Cc2ccccc2)[C@H](O)CNC2CC2)cc(-c2ccc(Cl)cc2)c1)c1ccccc1`, the half-inhibitory concentration (IC50) against Beta-secretase 2 was > 100000 nM; against Beta-secretase 1, 811 nM.

As for `C[C@@H](NC(=O)c1cc(C(=O)N[C@@H](Cc2ccccc2)[C@H](O)CNC2CC2)cc2c1CCCCO2)c1ccc(F)cc1`, the IC50 is 1950 nM against Beta-secretase 2 and 262 nM against Beta-secretase 1.

For `C[C@@H](NC(=O)c1cc(C(=O)N[C@@H](Cc2ccccc2)[C@H](O)CNC2CC2)cc(-c2cn(Cc3ccccc3)nn2)c1)c1ccccc1`, the values for the IC50 against Beta-secretase 2 and against Beta-secretase 1 were > 100000 nM and 1260 nM, respectively.

On to `C[C@@H](NC(=O)c1cc(C#Cc2ccccc2)cc(C(=O)N[C@@H](Cc2ccccc2)[C@H](O)CNC2CC2)c1)c1ccccc1`, for which the IC50 is > 100000 nM at Beta-secretase 2 and 1120 nM against Beta-secretase 1.

In the case of `C[C@@H](NC(=O)c1cc(C(=O)N[C@@H](Cc2ccccc2)[C@H](O)CNC2CC2)cc2c1CCCO2)c1ccc(F)cc1`, the values for the IC50 against Beta-secretase 2 and on Beta-secretase 1 were 2090 nM and 740 nM, respectively.

On to `Cc1cc2c(C(=O)N[C@@H](Cc3ccccc3)[C@H](O)CNC3CC3)cc(C(=O)N[C@H](C)c3ccccc3)cc2o1`, for which the IC50 on Beta-secretase 2 is > 100000 nM; on Beta-secretase 1, 998 nM.

Consider `C[C@@H](NC(=O)c1cc2c(c(C(=O)N[C@@H](Cc3ccccc3)[C@H](O)CNC3CC3)c1)CCCCO2)c1ccccc1`, for which the 50% inhibitory concentration (IC50) is > 100000 nM against Beta-secretase 2 and 89 nM on Beta-secretase 1.

For `C[C@@H](NC(=O)c1cc(C(=O)N[C@@H](Cc2ccccc2)[C@H](O)CNC2CC2)cc(-c2ccsc2)c1)c1ccccc1`, the concentration for half-maximal inhibition (IC50) at Beta-secretase 2 was > 100000 nM; on Beta-secretase 1, 2230 nM.

For the molecule `C[C@@H](NC(=O)c1cc(C(=O)N[C@@H](Cc2ccccc2)[C@H](O)CNC2CC2)cc2c1CCCO2)c1ccccc1`, the Activity in the assay on N2a is given as 65%. Also, the IC50 on Beta-secretase 2 was > 100000 nM; against Beta-secretase 1, 63 nM.

`C[C@@H](NC(=O)c1cc(C(=O)N[C@@H](Cc2ccccc2)[C@H](O)CNC2CC2)cc2c1CCCCO2)c1ccccc1` registered an Activity in the assay with N2a of 35%. Moreover, the IC50 against Beta-secretase 2 is > 100000 nM; against Beta-secretase 1, 56 nM.

On to `COc1cc(C(=O)N[C@@H](Cc2ccccc2)[C@H](O)CNC2CC2)cc(C(=O)N[C@H](C)c2ccccc2)c1`, for which the results for the IC50 against Beta-secretase 2 and at Beta-secretase 1 were > 100000 nM and 2510 nM, respectively.

As to `C[C@@H](NC(=O)c1cc(O)cc(C(=O)N[C@@H](Cc2ccccc2)[C@H](O)CNC2CC2)c1)c1ccccc1`, the IC50 was > 100000 nM on Beta-secretase 2 and 1580 nM against Beta-secretase 1.

As for `C[C@@H](NC(=O)c1cc(C(=O)N[C@@H](Cc2ccccc2)[C@H](O)CNC2CC2)cc(N2CCCCS2(=O)=O)c1)c1ccccc1`, the IC50 at Beta-secretase 2 turned out to be 251 nM; against Beta-secretase 1, 158 nM.

Take `Cc1cc2c(C(=O)N[C@H](C)c3ccccc3)cc(C(=O)N[C@@H](Cc3ccccc3)[C@H](O)CNC3CC3)cc2o1`: the half-inhibitory concentration (IC50) was > 100000 nM at Beta-secretase 2 and 524 nM on Beta-secretase 1.

For the molecule `C[C@@H](NC(=O)c1cc2c(c(C(=O)N[C@@H](Cc3ccccc3)[C@H](O)CNC3CC3)c1)CCCO2)c1ccccc1`, the IC50 at Beta-secretase 2 was > 100000 nM; against Beta-secretase 1, 112 nM.

On to `C#Cc1cc(C(=O)N[C@@H](Cc2ccccc2)[C@H](O)CNC2CC2)cc(C(=O)N[C@H](C)c2ccccc2)c1`, for which the IC50 is > 100000 nM at Beta-secretase 2 and 889 nM on Beta-secretase 1.
